For assay [1] the following is noted: without irradiation and chemotherapy; cited from earlier work.
The subject of assay [2] is NADPH oxidase in K562 cells. As to the kind of experiment: Superoxide generation (Diogenes luminescence) in K562 cells reconstituted with gp91^phox vectors. Type of assay: cell-based. As to conditions: K562 cells stably expressing human p47^phox and p67^phox, transfected 48 h before measurement. As for the experimental part: FIG. 15. The gp91^phox (T196F) mutant is superactive compared with wild-type. A cellular luminescence enhancement system for superoxide detection (Diogenes, National Diagnostics) was used. Human p47^phox and p67^phox stably expressing K562 cells were transfected with either wild-type human gp91^phox vector, gp91^phox (T196F) vector, or empty vector pcDNA 3.1 48 h before measurement. K562 cells constitutively express p22^phox and Rac. The experiment shown is representative of 3 studies.
In a structure/function study of gp91^phox, a super-active variant of gp91^phox (T196F) was generated in which residue 196 is mutated from threonine to phenylalanine (FIG. 15). PMA-stimulated superoxide generation was 7-fold greater when gp91^phox(T196F), versus wild-type gp91^phox, was used to reconstitute the NADPH oxidase in K562 cells. The mutant construct was made by Quik-Change™ site-directed mutagenesis of gp91^phox using sense primer […] (SEQ ID NO:1) and antisense primer […] (SEQ ID NO:2). The construct was sequenced and subcloned into fresh pcDNA3.1 (−) using NheI and XhoI.

For `c1cc(CN2CCCNCCNCCCNCC2)ccc1CN1CCCNCCNCCCNCC1` [AMD3100], the “effectiveness as conditioning regimen” value in assay [1] is on record as “not to be sufficiently effective”.

B1: gp91^phox(T196F): super-active variant of gp91^phox in which residue 196 is mutated from threonine to phenylalanine (protein, UniProt P04839 2-570, looked up, variant T196F)
NADPH oxidase 2: GNWAVNEGLSIFVILVWLGLNVFLFVWYYRVYDIPPKFFYTRKLLGSALALARAPAACLNFNCMLILLPVCRNLLSFLRGSSACCSTRVRRQLDRNLTFHKMVAWMIALHSAIHTIAHLFNVEWCVNARVNNSDPYSVALSELGDRQNESYLNFARKRIKNPEGGLYLAVTLLAGITGVVITLCLILIITSSTKFIRRSYFEVFWYTHHLFVIFFIGLAIHGAERIVRGQTAESLAVHNITVCEQKISEWGKIKECPIPQFAGNPPMTWKWIVGPMFLYLCERLVRFWRSQQKVVITKVVTHPFKTIELQMKKKGFKMEVGQYIFVKCPKVSKLEWHPFTLTSAPEEDFFSIHIRIVGDWTEGLFNACGCDKQEFQDAWKLPKIAVDGPFGTASEDVFSYEVVMLVGAGIGVTPFASILKSVWYKYCNNATNLKLKKIYFYWLCRDTHAFEWFADLLQLLESQMQERNNAGFLSYNIYLTGWDESQANHFAVHHDEEKDVITGLKQKTLYGRPNWDNEFKTIASQHPNTRIGVFLCGPEALAETLSKQSISNSESGPRGVHFIFNKENF
Regarding B1, in assay [2], the “PMA-stimulated superoxide generation relative to wild-type gp91^phox” value came to 7 fold.

(Values after US11738053B2, “Methods and compositions for treating chronic granulomatous disease” (THE BOARD OF REGENTS OF THE UNIVERSITY OF TEXAS SYSTEM, priority 2016, dated 2023).)
